Measurements taken from PubChem BioAssay AID2060495 (Molecular Pharmacology Branch, DTP, NCI, 2025).
One block for each compound: values may come before it.

Tested on: 521955-158-R2-J5-PDC complex spheroid viability
Assay: Anticancer human tumor 521955-158-R2-J5-PDC patient-derived pancreatic carcinoma cell line growth inhibition [GQUAD]
Conditions: for IC50: curve of first compound; for viability, T/C: stronger effect = lower value
Excerpt: DNA G-quadruplex Stabilizer Agents in Combinations in Complex Spheroids
A high-throughput screen of multi-cell type tumor spheroids was designed to identify active combinations of DNA G-quadruplex stabilizer agents and targeted small molecules. Complex spheroids include a stromal component modeled by human endothelial cells (HUVEC) and fibroblasts modeled by human mesenchymal stem cells (MSCs). The concentration ranges selected for each drug and investigational agent were based upon clinically achievable concentrations if the clinical Cmax of the agent was known.
Compounds. The drugs and investigational agents: pidnarulex (CX-5461; NSC782164), APTO-253 (NSC789042), BRACO-19 (NSC847499), peposertib (NSC802822), ceralasertib (NSC780249), elimusertib (NSC800525), camonsertib (NSC841442), AZD-1390 (NSC803789), olaparib (NSC753686), talazoparib (NSC767125), ART-558 (NSC835418), sotorasib (NSC818433), MRTX-1133 (NSC836407), SN-38 (NSC673596), topotecan (NSC609699), etoposide (NSC141540), doxorubicin (NSC123127), gemcitabine (NSC613327), 5-fluorouracil (NSC19893), paclitaxel (NSC125973), vemurafenib (NSC761431), panobinostat (NSC761190), R-306465 (JNJ-16241199; NSC773264), adavosertib (NSC754352), TP-3654 (NSC805149), carboplatin (NSC241240), KSQ-4279 (NSC840948), and staurosporine (NSC755774) were obtained from the National Cancer Institute (NCI) Developmental Therapeutics Program Chemical Repository (34). The FDA-approved anticancer drug set is available from the NCI Developmental Therapeutics Program. […] The stock solutions were prepared in dimethyl sulfoxide (DMSO, Sigma-Aldrich, St. Louis, MO, cat. D2650) at 800-fold the tested concentration and stored at -70 degrees C prior to their use. All drugs and investigational agents were tested over a range starting from a high concentration at or near the clinical Cmax and decreasing in half-log increments. If the clinical Cmax for an agent had not been determined, the highest concentration tested was 10 microM.
2.3 Cell Culture. All cells were maintained in an incubator at 37 degrees C and 5% CO2 with 95% humidity. The PDC lines were cultured according to standard operating procedures established by the NCI PDMR. All PDCs were thawed and cultured in Matrigel-coated flasks prepared with a working solution of 1X Ham's F-12 nutrient mix, without supplementation (Invitrogen, cat. 11765054), 100 U/mL penicillin-streptomycin (Invitrogen, cat. 15140122), and 2.5% Matrigel (Corning Inc., cat. 354248) for the first three passages. The 857933-349-R-J2-PDC line was cultured in 6C/Colon 1B media, which includes advanced DMEM/F-12 (Thermo Fisher Scientific, cat. 12634028), 10 mM HEPES (Thermo Fisher Scientific, cat. 15630080), 1X GlutaMAX supplement (Thermo Fisher Scientific, cat. 35050061), 0.1 mg/mL primocin (InvivoGen, cat. ant-pm-2), 10% defined fetal bovine serum, heat inactivated (HyClone Laboratories Inc., cat. SH30070.03HI), 50% L-WRN conditioned media (ATCC, cat. CRL-3276), 1.25 mM N-Acetyl-L-cysteine (Sigma-Aldrich, cat. A9165), 10 mM nicotinamide (Sigma-Aldrich, cat. N0636), 1X B-27 supplement (Thermo Fisher Scientific, cat. 17504044), 1X N-2 supplement (Thermo Fisher Scientific, cat. 17502048), 10 microM Y-27632 dihydrochloride (Tocris Bioscience, cat. 1254), and 50 ng/mL human EGF recombinant protein (Thermo Fisher Scientific, cat. PHG0311). The 485176-168-R4-J1-PDC line was cultured in Panc media, which includes all 6C/Colon 1B media components plus 100 ng/mL human FGF-10 (Thermo Fisher Scientific, cat. 100-26), 500 nM SB-431542 (Selleckchem, cat. S1067), and gastrin (Tocris, cat. 3006).
[…]

[1] = second compound 0.0316 µM, first compound 0.0316 µM
[2] = second compound 0.0316 µM, first compound 0.1 µM
[3] = second compound 0.0316 µM, first compound 0.316 µM
[4] = second compound 0.0316 µM, first compound 1 µM
[5] = second compound 0.0316 µM, first compound 3.16 µM
[6] = second compound 0.0316 µM, first compound 10 µM
[7] = second compound 0.1 µM, first compound 0.0316 µM
[8] = second compound 0.1 µM, first compound 0.1 µM
[9] = second compound 0.1 µM, first compound 0.316 µM
[10] = second compound 0.1 µM, first compound 1 µM
[11] = second compound 0.1 µM, first compound 3.16 µM
[12] = second compound 0.1 µM, first compound 10 µM
[13] = second compound 0.316 µM, first compound 0.0316 µM
[14] = second compound 0.316 µM, first compound 0.1 µM
[15] = second compound 0.316 µM, first compound 0.316 µM
[16] = second compound 0.316 µM, first compound 1 µM
[17] = second compound 0.316 µM, first compound 3.16 µM
[18] = second compound 0.316 µM, first compound 10 µM
[19] = second compound 1 µM, first compound 0.0316 µM
[20] = second compound 1 µM, first compound 0.1 µM
[21] = second compound 1 µM, first compound 0.316 µM
[22] = second compound 1 µM, first compound 1 µM
[23] = second compound 1 µM, first compound 3.16 µM
[24] = second compound 1 µM, first compound 10 µM
[25] = second compound 3.16 µM, first compound 0.0316 µM
[26] = second compound 3.16 µM, first compound 0.1 µM
[27] = second compound 3.16 µM, first compound 0.316 µM
[28] = second compound 3.16 µM, first compound 1 µM
[29] = second compound 3.16 µM, first compound 3.16 µM
[30] = second compound 3.16 µM, first compound 10 µM
[31] = second compound 10 µM, first compound 0.0316 µM
[32] = second compound 10 µM, first compound 0.1 µM
[33] = second compound 10 µM, first compound 0.316 µM
[34] = second compound 10 µM, first compound 1 µM
[35] = second compound 10 µM, first compound 3.16 µM
[36] = second compound 10 µM, first compound 10 µM
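Also: spheroids exposed to agents for one week before reading.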
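For viability, T/C in this document: 100% = DMSO vehicle control viability.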

SMILES: O=C(c1cc(Cc2n[nH]c(=O)c3ccccc23)ccc1F)N1CCN(C(=O)C2CC2)CC1 + Cc1[nH]c2ccc(F)cc2c1-c1nc2c3cccnc3c3ncccc3c2[nH]1
IC50 (second compound 0.0316 µM): > 10 µM | IC50 (second compound 0.1 µM): > 10 µM | IC50 (second compound 0.316 µM): > 10 µM | IC50 (second compound 1 µM): > 10 µM | IC50 (second compound 3.16 µM): > 10 µM | IC50 (second compound 10 µM): > 10 µM | viability, T/C [1]: 84.3% | viability, T/C [2]: 88.5% | viability, T/C [3]: 89.8% | viability, T/C [4]: 80.4% | viability, T/C [5]: 93% | viability, T/C [6]: 74.5% | viability, T/C [7]: 83.4% | viability, T/C [8]: 80% | viability, T/C [9]: 82% | viability, T/C [10]: 83.2% | viability, T/C [11]: 87.9% | viability, T/C [12]: 96.3% | viability, T/C [13]: 80.9% | viability, T/C [14]: 76.9% | viability, T/C [15]: 102% | viability, T/C [16]: 102% | viability, T/C [17]: 88.3% | viability, T/C [18]: 91% | viability, T/C [19]: 92.4% | viability, T/C [20]: 93% | viability, T/C [21]: 99.4% | viability, T/C [22]: 98.8% | viability, T/C [23]: 104% | viability, T/C [24]: 92.7% | viability, T/C [25]: 91.8% | viability, T/C [26]: 104% | viability, T/C [27]: 78.7% | viability, T/C [28]: 98.3% | viability, T/C [29]: 98.7% | viability, T/C [30]: 84.5% | viability, T/C [31]: 86.8% | viability, T/C [32]: 92.7% | viability, T/C [33]: 88.2% | viability, T/C [34]: 102% | viability, T/C [35]: 92.5% | viability, T/C [36]: 82.6%

IC50 (second compound 0.0316 µM): > 10 µM | IC50 (second compound 0.1 µM): 2.86 µM | IC50 (second compound 0.316 µM): < 0.0316 µM | IC50 (second compound 1 µM): < 0.0316 µM | IC50 (second compound 3.16 µM): < 0.0316 µM | IC50 (second compound 10 µM): < 0.0316 µM
SMILES: O=C(c1cc(Cc2n[nH]c(=O)c3ccccc23)ccc1F)N1CCN(C(=O)C2CC2)CC1 + Cc1cnc(CNC(=O)c2c(=O)c3ccc(N4CCCN(C)CC4)nc3n3c2sc2ccccc23)cn1
viability, T/C [1]: 83.5% | viability, T/C [2]: 56% | viability, T/C [3]: 77.1% | viability, T/C [4]: 64.4% | viability, T/C [5]: 75.4% | viability, T/C [6]: 59.7% | viability, T/C [7]: 60.3% | viability, T/C [8]: 63.5% | viability, T/C [9]: 59.7% | viability, T/C [10]: 52.9% | viability, T/C [11]: 51.8% | viability, T/C [12]: 32.5% | viability, T/C [13]: 35.1% | viability, T/C [14]: 50% | viability, T/C [15]: 37.9% | viability, T/C [16]: 36.9% | viability, T/C [17]: 30.8% | viability, T/C [18]: 24.1% | viability, T/C [19]: 18% | viability, T/C [20]: 19.9% | viability, T/C [21]: 22.8% | viability, T/C [22]: 23.9% | viability, T/C [23]: 21.1% | viability, T/C [24]: 16.1% | viability, T/C [25]: 16.6% | viability, T/C [26]: 19.6% | viability, T/C [27]: 21.1% | viability, T/C [28]: 15.9% | viability, T/C [29]: 16.5% | viability, T/C [30]: 13.9% | viability, T/C [31]: 21.2% | viability, T/C [32]: 18.9% | viability, T/C [33]: 18.1% | viability, T/C [34]: 18.2% | viability, T/C [35]: 16.7% | viability, T/C [36]: 12.1%
